Test results as given in ChEMBL document CHEMBL4257571, “Discovery of 5-(2-chloro-4'-(1H-imidazol-1-yl)-[1,1'-biphenyl]-4-yl)-1H-tetrazole as potent and orally efficacious S-nitrosoglutathione reductase (GSNOR) inhibitors for the potential treatment of COPD” (Bioorg Med Chem Lett, 2018).
pIC50: −log10 of the molar value. ≈ marks a conversion by molar mass, not a printed value.

Legend:
[1] = Protein binding in human plasma at 10 uM by LC/MS/MS based equilibrium dialysis analysis; assay type: ADME, cell-free; settings: read-out: PPB
[2] = Apparent permeability in human Calu3 cells; assay type: ADME, cell-based, Calu-3
[3] = Aqueous solubility of compound in fasted state stimulated intestinal fluid at pH 6.2; assay type: physicochemical; settings: fasted state simulated intestinal fluid
[4] = Clearance in C57/BL6 mouse at 3 mg/kg, iv; assay type: ADME, organism-based; settings: in vivo
Mus musculus [5] = assay: (§1) Anti-inflammatory activity in C57BL/6 mouse model of cigarette smoke induced chronic obstructive pulmonary disease assessed as macrophages count in bronchoalveolar lavage at 3 mg/kg, po administered once daily for 7 days 1 hr prior to first smoke exposure and measured on day 8 after last smoke exposure post single drug treatment by Leishman's staining based assay; assay type: functional
Mus musculus [6] = assay: as §1, with “30” for “3”; assay type: functional
CYP1A2 = biological target: T1, CYP1A2 (Homo sapiens, UniProt P05177); assay: Inhibition of CYP1A2 in human liver microsomes at 10 uM after 20 mins in presence of NADPH by LC/MS/MS analysis relative to control; assay type: ADME; settings: liver microsomes
T1 sequence (P05177 whole entry): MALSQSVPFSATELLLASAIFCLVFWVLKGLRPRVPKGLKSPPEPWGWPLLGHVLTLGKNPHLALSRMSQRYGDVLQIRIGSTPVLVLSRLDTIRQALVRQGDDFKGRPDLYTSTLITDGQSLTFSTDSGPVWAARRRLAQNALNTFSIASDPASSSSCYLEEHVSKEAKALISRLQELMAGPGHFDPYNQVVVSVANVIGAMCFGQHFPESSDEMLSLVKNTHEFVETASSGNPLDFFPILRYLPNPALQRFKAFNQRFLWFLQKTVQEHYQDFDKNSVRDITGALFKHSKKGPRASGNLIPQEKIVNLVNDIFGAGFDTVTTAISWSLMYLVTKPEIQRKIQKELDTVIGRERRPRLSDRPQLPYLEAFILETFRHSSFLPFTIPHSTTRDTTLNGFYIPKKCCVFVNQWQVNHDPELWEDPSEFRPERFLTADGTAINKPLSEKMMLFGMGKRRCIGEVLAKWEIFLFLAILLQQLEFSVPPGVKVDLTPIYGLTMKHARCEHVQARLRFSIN

hERG (KCNH2) = hERG (KCNH2) (Homo sapiens, UniProt Q12809); assay: Inhibition of human ERG at 10 uM by patch clamp assay relative to control
[7] = AUC (0 to 24 hrs) in C57/BL6 mouse at 30 mg/kg, po; assay type: ADME, organism-based; set-up: time < 24 hr, dose 30 mg/kg, route oral; settings: in vivo
[8] = Efflux ratio of apparent permeability across basolateral to apical side over apical to basolateral side in human Calu3 cells; assay type: ADME, cell-based, Calu-3
[9] = biological target: All-trans-retinol dehydrogenase [NAD(+)] ADH1B (Homo sapiens, UniProt P00325); assay: Inhibition of ADH1B (unknown origin) assessed as reduction in NADH production by spectrophotometric analysis
[10] = biological target: Alcohol dehydrogenase class-3 (Mus musculus, UniProt P28474); assay: Inhibition of mouse GSNOR assessed as reduction in NADH consumption after 3 mins by spectrophotometric analysis
[11] = Metabolic stability of rat liver microsomes assessed as parent compound remaining at 0.1 uM after 60 mins in presence of NADPH by LC/MS/MS analysis; assay type: ADME, microsome; settings: read-out: Stability
[12] = Metabolic stability of human liver microsomes assessed as parent compound remaining at 0.1 uM after 60 mins in presence of NADPH by LC/MS/MS analysis; assay type: ADME, microsome; settings: read-out: Stability
Homo sapiens = species: Homo sapiens; assay: Inhibition of I2 receptor (unknown origin) at 10 uM relative to control

Sequence of Alcohol dehydrogenase class-3 (P28474 whole entry): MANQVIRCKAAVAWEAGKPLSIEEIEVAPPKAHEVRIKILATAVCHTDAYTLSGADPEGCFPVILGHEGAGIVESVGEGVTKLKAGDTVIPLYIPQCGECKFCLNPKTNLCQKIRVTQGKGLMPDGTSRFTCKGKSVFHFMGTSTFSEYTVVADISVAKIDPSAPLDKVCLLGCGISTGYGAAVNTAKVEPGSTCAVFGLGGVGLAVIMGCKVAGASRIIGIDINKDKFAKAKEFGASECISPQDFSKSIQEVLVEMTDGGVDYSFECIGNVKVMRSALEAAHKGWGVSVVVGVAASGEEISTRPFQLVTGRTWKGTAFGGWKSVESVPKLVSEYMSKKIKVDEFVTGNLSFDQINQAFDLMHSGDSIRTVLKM
Sequence of All-trans-retinol dehydrogenase [NAD(+)] ADH1B (P00325 whole entry): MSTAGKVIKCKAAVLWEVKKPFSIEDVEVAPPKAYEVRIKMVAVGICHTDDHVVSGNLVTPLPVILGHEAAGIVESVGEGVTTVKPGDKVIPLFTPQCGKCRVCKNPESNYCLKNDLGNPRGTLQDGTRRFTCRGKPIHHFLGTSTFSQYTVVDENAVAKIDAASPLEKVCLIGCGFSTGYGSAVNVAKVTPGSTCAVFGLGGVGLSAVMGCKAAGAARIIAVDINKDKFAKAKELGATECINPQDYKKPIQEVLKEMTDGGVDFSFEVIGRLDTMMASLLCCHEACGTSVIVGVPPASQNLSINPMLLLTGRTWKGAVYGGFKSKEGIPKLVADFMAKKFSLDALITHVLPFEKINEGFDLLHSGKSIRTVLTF
Sequence of hERG (KCNH2) (Q12809 whole entry): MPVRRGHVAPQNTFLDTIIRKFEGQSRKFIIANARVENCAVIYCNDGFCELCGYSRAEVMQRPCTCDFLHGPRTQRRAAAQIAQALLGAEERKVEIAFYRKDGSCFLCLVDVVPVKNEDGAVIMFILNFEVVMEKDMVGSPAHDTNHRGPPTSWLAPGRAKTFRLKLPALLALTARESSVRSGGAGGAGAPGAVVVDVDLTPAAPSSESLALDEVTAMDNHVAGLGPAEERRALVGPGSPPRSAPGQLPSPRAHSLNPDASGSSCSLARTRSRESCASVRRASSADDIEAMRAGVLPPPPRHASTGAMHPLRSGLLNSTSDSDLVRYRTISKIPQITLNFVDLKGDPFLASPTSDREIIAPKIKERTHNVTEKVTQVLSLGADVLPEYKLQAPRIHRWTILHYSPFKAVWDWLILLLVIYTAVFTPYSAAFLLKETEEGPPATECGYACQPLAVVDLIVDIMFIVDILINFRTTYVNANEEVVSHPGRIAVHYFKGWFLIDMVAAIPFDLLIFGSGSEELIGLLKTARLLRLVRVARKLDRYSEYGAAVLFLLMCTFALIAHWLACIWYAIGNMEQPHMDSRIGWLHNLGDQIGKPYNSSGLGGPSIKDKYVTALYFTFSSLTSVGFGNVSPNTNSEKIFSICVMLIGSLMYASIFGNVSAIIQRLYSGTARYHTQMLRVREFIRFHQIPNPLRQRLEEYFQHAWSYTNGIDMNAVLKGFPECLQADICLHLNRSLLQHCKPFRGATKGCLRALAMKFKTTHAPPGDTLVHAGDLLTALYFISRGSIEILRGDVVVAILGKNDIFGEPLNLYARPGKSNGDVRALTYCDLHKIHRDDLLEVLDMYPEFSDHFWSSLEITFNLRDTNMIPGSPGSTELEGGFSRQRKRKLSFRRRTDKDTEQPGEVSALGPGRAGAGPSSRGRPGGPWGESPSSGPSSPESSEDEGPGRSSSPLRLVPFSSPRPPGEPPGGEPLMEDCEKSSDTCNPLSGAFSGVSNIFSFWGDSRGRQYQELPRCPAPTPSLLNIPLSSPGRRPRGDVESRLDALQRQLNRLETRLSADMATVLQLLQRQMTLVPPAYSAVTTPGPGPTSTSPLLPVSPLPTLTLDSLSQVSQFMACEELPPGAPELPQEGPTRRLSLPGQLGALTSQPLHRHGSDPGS

fraction unbound at 10 µM [1]: < 0.005
Papp [2]: 8.23 ×10⁻⁶ cm/s
solubility [3]: 3.5 µg/mL (≈ 10.8 µM)
clearance [4]: 1.4 mL/min/kg
inhibition at 20 min, 10 µM (CYP1A2): 32%
AUC(0-t) at 24 h [7]: 69900 ng·h/mL
efflux ratio [8]: 0.8
pIC50 [9]: 4.27
pIC50 [10]: 8.15
remaining at 1 h, 0.1 µM [11]: 83%
remaining at 1 h, 0.1 µM [12]: 100%
inhibition (Homo sapiens): 88%
Structure (SMILES): Clc1cc(-c2nnn[nH]2)ccc1-c1ccc(-n2ccnc2)cc1
Activity (Mus musculus [5]): 45%
Activity (Mus musculus [6]): 61%
inhibition at 10 µM (hERG (KCNH2)): 11%
